Measurements taken from patent US10435399B2, “HDAC6 inhibitory heterocyclic compound” (TAKEDA PHARMACEUTICAL COMPANY LIMITED, priority 2017, dated 2019).

These compounds were tested against T1, HDAC6 enzyme (Homo sapiens, UniProt Q9UBN7) (assay: HDAC6 enzyme inhibitory activity (HDAC-Glo I/II Assay kit)). Settings: 10 μM; wells without enzyme = 100% inhibition.
T1 construct: transducing full length HDAC6 gene into Sf-9 insect cells; GST; purchased SignalChem; host or cells: Sf-9 insect cells
T1 sequence (Q9UBN7 1-1215): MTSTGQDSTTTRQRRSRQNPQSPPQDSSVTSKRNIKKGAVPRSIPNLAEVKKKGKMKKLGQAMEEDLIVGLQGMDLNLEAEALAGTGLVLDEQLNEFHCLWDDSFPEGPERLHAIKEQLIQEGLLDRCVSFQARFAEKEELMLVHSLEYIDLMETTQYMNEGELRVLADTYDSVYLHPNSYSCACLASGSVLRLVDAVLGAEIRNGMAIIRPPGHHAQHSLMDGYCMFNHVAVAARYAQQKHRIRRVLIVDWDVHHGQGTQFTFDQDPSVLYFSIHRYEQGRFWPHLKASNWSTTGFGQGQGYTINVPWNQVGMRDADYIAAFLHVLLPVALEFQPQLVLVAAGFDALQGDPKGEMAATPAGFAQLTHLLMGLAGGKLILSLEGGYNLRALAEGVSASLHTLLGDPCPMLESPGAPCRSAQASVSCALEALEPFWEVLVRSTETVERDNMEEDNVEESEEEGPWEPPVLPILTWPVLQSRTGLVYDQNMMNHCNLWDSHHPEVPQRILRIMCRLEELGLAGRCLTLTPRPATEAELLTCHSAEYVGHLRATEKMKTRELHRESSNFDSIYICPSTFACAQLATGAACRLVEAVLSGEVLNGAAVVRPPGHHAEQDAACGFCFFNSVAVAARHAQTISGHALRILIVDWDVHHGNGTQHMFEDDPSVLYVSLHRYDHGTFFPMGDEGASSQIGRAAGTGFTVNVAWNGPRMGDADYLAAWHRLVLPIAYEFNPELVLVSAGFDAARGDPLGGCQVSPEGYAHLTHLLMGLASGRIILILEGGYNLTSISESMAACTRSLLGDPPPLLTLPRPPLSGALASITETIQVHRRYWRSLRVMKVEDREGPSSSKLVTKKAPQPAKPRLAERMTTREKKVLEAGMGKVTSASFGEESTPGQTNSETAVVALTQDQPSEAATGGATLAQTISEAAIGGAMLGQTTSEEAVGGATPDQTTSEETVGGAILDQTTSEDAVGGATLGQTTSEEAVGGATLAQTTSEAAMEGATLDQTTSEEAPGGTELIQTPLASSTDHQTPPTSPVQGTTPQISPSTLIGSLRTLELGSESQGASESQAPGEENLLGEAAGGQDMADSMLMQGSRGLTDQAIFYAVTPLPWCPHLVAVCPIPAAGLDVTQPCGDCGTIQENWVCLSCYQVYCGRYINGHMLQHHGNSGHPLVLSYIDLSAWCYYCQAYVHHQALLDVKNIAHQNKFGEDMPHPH
Assay type: biochemical
Experimental: HDAC6 enzyme prepared by transducing full length HDAC6 gene into Sf-9 insect cells and purifying by GST affinity column were purchased from SignalChem. Using this enzyme, HDAC6 enzyme inhibitory activities of the compound of the present invention were evaluated. Enzymes were used after preserved at −70° C. HDAC6 enzyme inhibitory activity of the compound of the present invention was measured using HDAC-Glo™ I/II Assay kit (Promega) according to the following experimental method. The test compound diluted with assay buffer (24 mM Tris-HCl (pH 7.5), 1 mM MgCl2, 0.35 mM KCl, 135 mM NaCl, 0.6 mM Glutathione, 0.01% Tween-20) was added to a 384-well plate by each 2 μL. Then, HDAC6 enzyme solution diluted with assay buffer was added thereto by each 4 μL, and the plate was incubated at room temperature for 60 min. After incubated, HDAC substrate-Developer solution prepared according to Promega protocol attached to the assay kit was added to the 384-well plate by each 2 μL, and the enzyme reaction was started. After reacting at room temperature for 20 min, luminescence level was measured using plate reader Envision (PerkinElmer). The inhibitory activity of each compound of Example was calculated as a relative activity value when luminescence level in wells without enzyme is considered as 100% inhibition.

HDAC6 inhibitory rate (%) (10 μM), 99%:
O=C1c2cc(-c3nnc(C(F)F)o3)ccc2CN1[C@@H]1CCC(F)(F)C[C@@H]1c1ccccn1 (relative stereo) [Example 591, 6-(5-(difluoromethyl)-1,3,4-oxadiazol-2-yl)-2-((1R*,2S*)-4,4-difluoro-2-(pyridin-2-yl)cyclohexyl)isoindolin-1-one (optical isomer)]

Same assay, conditions: 10 μM; wells without enzyme = 100% inhibition; read-out: HDAC6 inhibitory rate (%) (10 μM)

Inhibition at 10 µM, 101%:
O=C1CCCN1[C@@H]1COCC[C@H]1N1Cc2ccc(-c3nnc(C(F)F)o3)cc2C1=O [Example 1, 6-(5-(difluoromethyl)-1,3,4-oxadiazol-2-yl)-2-((3S,4R)-3-(2-oxopyrrolidin-1-yl)tetrahydro-2H-pyran-4-yl)isoindolin-1-one]
O=C(N[C@@H]1CCCC[C@H]1N1Cc2ccc(-c3nnc(C(F)F)o3)cc2C1=O)OC1CC1 [Example 8, cyclopropyl ((1R,2R)-2-(6-(5-(difluoromethyl)-1,3,4-oxadiazol-2-yl)-1-oxo-1,3-dihydro-2H-isoindol-2-yl)cyclohexyl)carbamate]
O=C(CC(F)(F)F)N[C@@H]1CCCC[C@H]1N1Cc2ccc(-c3nnc(C(F)F)o3)cc2C1=O [Example 13, N-((1R,2R)-2-(6-(5-(difluoromethyl)-1,3,4-oxadiazol-2-yl)-1-oxo-1,3-dihydro-2H-isoindol-2-yl)cyclohexyl)-3,3,3-trifluoropropanamide]
N#CC1(C(=O)N[C@@H]2CCCC[C@H]2N2Cc3ccc(-c4nnc(C(F)F)o4)cc3C2=O)CC1 [Example 17, 1-cyano-N-((1R,2R)-2-(6-(5-(difluoromethyl)-1,3,4-oxadiazol-2-yl)-1-oxo-1,3-dihydro-2H-isoindol-2-yl)cyclohexyl)cyclopropanecarboxamide]
O=C1c2cc(-c3nnc(C(F)F)o3)ccc2CN1[C@@H]1CCCC[C@H]1NC(=O)C1(F)CC1 [Example 19, N-((1R,2R)-2-(6-(5-(difluoromethyl)-1,3,4-oxadiazol-2-yl)-1-oxo-1,3-dihydro-2H-isoindol-2-yl)cyclohexyl)-1-fluorocyclopropanecarboxamide]

Inhibition at 10 µM, 102%:
O=C1c2cc(-c3nnc(C(F)F)o3)ccc2CN1[C@@H]1CCCC[C@H]1NC(=O)C(F)(F)F [Example 6, N-((1R,2R)-2-(6-(5-(difluoromethyl)-1,3,4-oxadiazol-2-yl)-1-oxo-1,3-dihydro-2H-isoindol-2-yl)cyclohexyl)-2,2,2-trifluoroacetamide]
CC(C)C(=O)N[C@@H]1CCCC[C@H]1N1Cc2ccc(-c3nnc(C(F)F)o3)cc2C1=O [Example 9, N-((1R,2R)-2-(6-(5-(difluoromethyl)-1,3,4-oxadiazol-2-yl)-1-oxo-1,3-dihydro-2H-isoindol-2-yl)cyclohexyl)-2-methylpropanamide]

Inhibition at 10 µM, 100%:
O=C(NC1CC(F)(F)CC[C@H]1N1Cc2ccc(-c3nnc(C(F)F)o3)cc2C1=O)OCc1ccccc1 (stereo in doubt) [Example 517, benzyl ((1S,2R)-2-(6-(5-(difluoromethyl)-1,3,4-oxadiazol-2-yl)-1-oxo-1,3-dihydro-2H-isoindol-2-yl)-5,5-difluorocyclohexyl) carbamate]
CC(=O)N[C@@H]1CCCC[C@H]1N1Cc2ccc(-c3nnc(C(F)F)o3)cc2C1=O [Example 5, N-((1R,2R)-2-(6-(5-(difluoromethyl)-1,3,4-oxadiazol-2-yl)-1-oxo-1,3-dihydro-2H-isoindol-2-yl)cyclohexyl)acetamide]
O=C(N[C@@H]1CCCC[C@H]1N1Cc2ccc(-c3nnc(C(F)F)o3)cc2C1=O)C1CCC1 [Example 12, N-((1R,2R)-2-(6-(5-(difluoromethyl)-1,3,4-oxadiazol-2-yl)-1-oxo-1,3-dihydro-2H-isoindol-2-yl)cyclohexyl)cyclobutanecarboxamide]
O=C1c2ccccc2CN1[C@@H]1CCCC[C@H]1N1Cc2ccc(-c3nnc(C(F)F)o3)cc2C1=O [Example 14, 6-(5-(difluoromethyl)-1,3,4-oxadiazol-2-yl)-2-((1R,2R)-2-(1-oxo-1,3-dihydro-2H-isoindol-2-yl)cyclohexyl)isoindolin-1-one]
CC1(C(=O)N[C@@H]2CCCC[C@H]2N2Cc3ccc(-c4nnc(C(F)F)o4)cc3C2=O)COC1 [Example 16, N-((1R,2R)-2-(6-(5-(difluoromethyl)-1,3,4-oxadiazol-2-yl)-1-oxo-1,3-dihydro-2H-isoindol-2-yl)cyclohexyl)-3-methyloxetane-3-carboxamide]
O=C(N[C@@H]1CCCC[C@H]1N1Cc2ccc(-c3nnc(C(F)F)o3)cc2C1=O)[C@@H]1CC1(F)F [Example 18, (1S)—N-((1R,2R)-2-(6-(5-(difluoromethyl)-1,3,4-oxadiazol-2-yl)-1-oxo-1,3-dihydro-2H-isoindol-2-yl)cyclohexyl)-2,2-difluorocyclopropanecarboxamide]
O=C1CCCCN1[C@@H]1CCCC[C@H]1N1Cc2ccc(-c3nnc(C(F)F)o3)cc2C1=O [Example 20, 6-(5-(difluoromethyl)-1,3,4-oxadiazol-2-yl)-2-((1R,2R)-2-(2-oxopiperidin-1-yl)cyclohexyl)isoindolin-1-one]

Inhibition at 10 µM, 99%:
O=C1CCCN1[C@@H]1CCCC[C@H]1N1Cc2ccc(-c3nnc(C(F)F)o3)cc2C1=O [Example 2, 6-(5-(difluoromethyl)-1,3,4-oxadiazol-2-yl)-2-((1R,2R)-2-(2-oxopyrrolidin-1-yl)cyclohexyl)isoindolin-1-one]
CC(C)(C)OC(=O)N[C@@H]1CCCC[C@H]1N1Cc2ccc(-c3nnc(C(F)F)o3)cc2C1=O [Example 3, tert-butyl ((1R,2R)-2-(6-(5-(difluoromethyl)-1,3,4-oxadiazol-2-yl)-1-oxo-1,3-dihydro-2H-isoindol-2-yl)cyclohexyl)carbamate]
O=C1c2cc(-c3nnc(C(F)F)o3)ccc2CN1[C@@H]1CCCC[C@H]1N1CCCS1(=O)=O [Example 4, 6-(5-(difluoromethyl)-1,3,4-oxadiazol-2-yl)-2-((1R,2R)-2-(1,1-dioxido-1,2-thiazolidin-2-yl)cyclohexyl)isoindolin-1-one]
CCC(=O)N[C@@H]1CCCC[C@H]1N1Cc2ccc(-c3nnc(C(F)F)o3)cc2C1=O [Example 7, N-((1R,2R)-2-(6-(5-(difluoromethyl)-1,3,4-oxadiazol-2-yl)-1-oxo-1,3-dihydro-2H-isoindol-2-yl)cyclohexyl)propanamide]
COC(=O)N[C@@H]1CCCC[C@H]1N1Cc2ccc(-c3nnc(C(F)F)o3)cc2C1=O [Example 10, methyl((1R,2R)-2-(6-(5-(difluoromethyl)-1,3,4-oxadiazol-2-yl)-1-oxo-1,3-dihydro-2H-isoindol-2-yl)cyclohexyl)carbamate]

Inhibition at 10 µM, 98%:
O=C(N[C@@H]1CCCC[C@H]1N1Cc2ccc(-c3nnc(C(F)F)o3)cc2C1=O)C1CC1 [Example 11, N-((1R,2R)-2-(6-(5-(difluoromethyl)-1,3,4-oxadiazol-2-yl)-1-oxo-1,3-dihydro-2H-isoindol-2-yl)cyclohexyl)cyclopropanecarboxamide]
CC1(C(=O)N[C@@H]2CCCC[C@H]2N2Cc3ccc(-c4nnc(C(F)F)o4)cc3C2=O)CC1 [Example 15, N-((1R,2R)-2-(6-(5-(difluoromethyl)-1,3,4-oxadiazol-2-yl)-1-oxo-1,3-dihydro-2H-isoindol-2-yl)cyclohexyl)-1-methylcyclopropanecarboxamide]
